According to patent US6642003B2, “Human glucose-dependent insulin-secreting cell line” (Cedars-Sinai Medical Center, priority 2001, dated 2003):

Experiments:
ARIP cells = assay: RT-PCR of islet β-cell specific transcripts, ARIP cells; type: cell-based, rat; conditions: Exendin-9 100 nM for 72 h
Method: (§1) After the treatment of ARIP and PANC-1 cells with GLP-1, Exendin-9, or vehicle, for the described length of time and the various doses, the culture medium was removed and the cells were washed (twice) with serum-free medium. Total RNA was isolated using the TRiazol-method (Gibco-BRL), and treated with DNase (Amplification Grade, GibcoBRL) in 20 mmol/l Tris-HCL (pH 8.4), 2 mmol/l MgCl2, and 50 mmol/l KCl to remove any traces of contaminating genomic DNA. RNA (2.5 μg) was then subjected to reverse transcription (RT reagents; Promega; Madison, Wis.). RT-PCR was undertaken in a volume of 50 μl of buffer containing 50 mmol/l KCl, 10 mmol/l Tris-HCl, 3.5 mmol/l MgCl2, 200 μmol/l each dNTPs, and 0.4 μmol/l each of sense and antisense primers to rat or human insulin (depending on the specific cell from which the RNA was extracted). Amplification was performed for 30 cycles at the denaturing temperature of 94° C. for 1 min, annealing temperature of 60° C. for 45 sec, and an extension temperature of 72° C. for 1 min. […] These included more irregular and variable cell shapes, with a cytoplasm less homogenous and “rougher” in appearance than control culture.
(§2) Treatment with GLP-1 induces the differentiation of ductal epithelial cells into insulin-producing cells. FIG. 2 illustrates a series of cell cultures grown with or without GLP-1 (10 nM) for 72 h. […] Preabsorption of the antibody with an excess of human recombinant insulin prevented the staining of insulin-positive GLP-1 treated cells (data not shown). While treatment with GLP-1 turned the majority of ARIP cells into […] For β-actin, the annealing temperature was raised to 64° C. for 1 min and gene-specific primers were used. For GLP-1-receptor (GLP-R) the annealing temperature used was 55° C. All other experimental conditions to amplify GLUT2, glucokinase, and GLP-R mRNAs were identical to those described for the amplification of insulin mRNA. RT and PCR conditions for human transcripts were identical to those described for rat mRNAs.
(§3) Southern blotting with species-specific full length cDNA probes for insulin, GLUT-2, glucokinase, GLP-1 receptor and β-actin was performed as previously described. Y. Wang, R. Perfetti, N. H. Greig, H. W. Holloway, K. A. DeOre, C. Montrose-Rafizadeh, D. Elahi, J. M. Egan, “Glucagon-like peptide-1 can reverse the age-related decline in glucose tolerance in rats.” J Clin Invest 99:2883-2889, 1997.

PANC-1/IDX-1 cells = assay: RT-PCR of islet β-cell specific transcripts, PANC-1/IDX-1 cells; type: cell-based, human; conditions: Exendin-9 100 nM for 72 h
Method: PANC-1 cells were transfected with a pcDNA3 construct (Invitrogen; Carlsbad, Calif.) harboring the wild-type full-length IDX-1 cDNA using LipoTAXI (Catalog N. 204110; Mammalian Transfection Kit, Stratagene; La Jolla, Calif.). Control cells were transfected with the vector alone. The selection of positive (i.e. transfected) cells was carried out by culturing the cells in the presence of 400 μg/ml of G418 sulfate (GN-04, Omega; Tarzana, Calif.).
as §1, §2, §3

diabetic rats = conditions: adult animals after subtotal pancreatectomy; cited from earlier work

Row | Substance | effect on expression of β-cell-specific genes (ARIP cells) | effect on expression of β-cell-specific genes (PANC-1/IDX-1 cells) | effect on islet mass (diabetic rats)
1 | Exendin-9: the peptide receptor antagonist of GLP-1 | inhibited the expression of GLUT-2, insulin and glucokinase | inhibited the expression of GLUT-2, insulin and glucokinase | –
2 | exendin4: an analog of the incretin hormone glucagon-like-peptide-1 | – | – | increase islet mass
